Source: the NIST ThermoML archive (doi:10.1021/je500696p)
Numbers after ± are expanded uncertainties.

Assays:
[1] = excess molar enthalpy (molar enthalpy of mixing); xn = mol fraction of the nth substance listed; settings: 308.15 K, 100 kPa, Liquid, Calvet calorimetry
[2] = xn = mol fraction of the nth substance listed; settings: 100 kPa, Liquid, Vibrating tube method, x1 = 1

SMILES	mass density ([2]; 293.15 K) [kg/m3]	mass density ([2]; 295.15 K) [kg/m3]	mass density ([2]; 298.15 K) [kg/m3]	mass density ([2]; 303.15 K) [kg/m3]	mass density ([2]; 308.15 K) [kg/m3]	mass density ([2]; 313.15 K) [kg/m3]	mass density ([2]; 318.15 K) [kg/m3]	mass density ([2]; 323.15 K) [kg/m3]	mass density ([2]; 328.15 K) [kg/m3]	mass density ([2]; 333.15 K) [kg/m3]	also measured
CCCC[N+](C)(C)C.O=S(=O)([N-]S(=O)(=O)C(F)(F)F)C(F)(F)F [butyltrimethylammonium bis(trifluoromethylsulfonyl)imide] + C[S+](C)[O-]											excess molar enthalpy ([1]; x2 = 0.1288): -0.027 ± 0.00717 kcal/mol; excess molar enthalpy ([1]; x2 = 0.2255): -0.0416 ± 0.00717 kcal/mol; excess molar enthalpy ([1]; x2 = 0.2609): -0.0459 ± 0.00717 kcal/mol; excess molar enthalpy ([1]; x2 = 0.3095): -0.0511 ± 0.00717 kcal/mol; excess molar enthalpy ([1]; x2 = 0.3626): -0.0593 ± 0.00717 kcal/mol; excess molar enthalpy ([1]; x2 = 0.4382): -0.0629 ± 0.00717 kcal/mol; excess molar enthalpy ([1]; x2 = 0.4941): -0.0667 ± 0.00717 kcal/mol; excess molar enthalpy ([1]; x2 = 0.4983): -0.0638 ± 0.00717 kcal/mol; excess molar enthalpy ([1]; x2 = 0.5007): -0.0643 ± 0.00717 kcal/mol; excess molar enthalpy ([1]; x2 = 0.559): -0.0684 ± 0.00717 kcal/mol; excess molar enthalpy ([1]; x2 = 0.5642): -0.0679 ± 0.00717 kcal/mol; excess molar enthalpy ([1]; x2 = 0.5646): -0.0691 ± 0.00717 kcal/mol; excess molar enthalpy ([1]; x2 = 0.6132): -0.0629 ± 0.00717 kcal/mol; excess molar enthalpy ([1]; x2 = 0.6267): -0.0619 ± 0.00717 kcal/mol; excess molar enthalpy ([1]; x2 = 0.7533): -0.0399 ± 0.00717 kcal/mol; excess molar enthalpy ([1]; x2 = 0.7693): -0.037 ± 0.00717 kcal/mol; excess molar enthalpy ([1]; x2 = 0.8684): -0.0155 ± 0.00717 kcal/mol
CN(C)C=O [dimethylformamide] + CCCC[N+](C)(C)C.O=S(=O)([N-]S(=O)(=O)C(F)(F)F)C(F)(F)F	948.7 ± 2.8	946.8 ± 2.8	943.9 ± 2.8	939.1 ± 2.8	934.4 ± 2.8	929.6 ± 2.8	924.8 ± 2.8	920 ± 2.8	915.2 ± 2.7	910.4 ± 2.7	
CCO [ethanol] + CCCC[N+](C)(C)C.O=S(=O)([N-]S(=O)(=O)C(F)(F)F)C(F)(F)F	789.6 ± 3.2	787.9 ± 3.2	785.3 ± 3.1	781 ± 3.1	776.7 ± 3.1	772.3 ± 3.1	767.9 ± 3.1	763.5 ± 3.1	758.9 ± 3	754.4 ± 3	
CCCO [propan-1-ol] + CCCC[N+](C)(C)C.O=S(=O)([N-]S(=O)(=O)C(F)(F)F)C(F)(F)F	803.6 ± 2.4	802.1 ± 2.4	799.7 ± 2.4	795.6 ± 2.4	791.6 ± 2.4	787.5 ± 2.4	783.4 ± 2.4	779.2 ± 2.3	774.9 ± 2.3	770.6 ± 2.3	
